Source: paper PMC5947539, “Cyclometalated iridium(III) complexes as lysosome-targeted photodynamic anticancer and real-time tracking agents” (Chemical Science, 2015)
Where two headings read alike, the source gives them in different places.

Key:
LO2 cells = test: (Photo)cytotoxicity, MTT assay, LO2; format: cell-based, human; conditions: for PI (phototoxicity index): IC50 dark / IC50 light
Procedure: (§1) Cell lines and culture conditions
(§2) A549, A549cisR, MCF-7 and LO2 cells were obtained from Experimental Animal Center of Sun Yat-sen University (Guangzhou, China). Cells were maintained in DMEM (Dulbecco’s modified […]
(§3) medium, which contained 10% FBS (fetal bovine serum, Gibco BRL), 100 ȝg/mL streptomycin (Gibco BRL), and 100 U/mL penicillin (Gibco BRL). The cells were cultured in a humidified […]
(§4) In each experiment, cells treated with vehicle control (1% DMSO) were kept as the reference group.
(§5) The cytotoxicity in the dark and phototoxicity of the tested compounds toward A549, A549cisR, MCF-7 and LO2 cell lines was determined by MTT assay.
(§6) For cytotoxicity in the dark, cells cultured in 96-well plates were grown to confluence. The compounds were dissolved in DMSO (1%, v/v), and diluted with fresh media immediately. the cells were incubated with a series of concentrations of the tested compounds for 44 h at 37 °C. 20 ȝL of MTT solution was then added to each well, and the plates were incubated for an additional 4 h. The media was carefully removed, and DMSO was added (150 µL per well) and incubated for 10 min with shaking. The absorbance at 595 nm was measured using a microplate reader (Infinite M200 Pro, Tecan, Männedorf, Switzerland).
(§7) For phototoxicity, the cells were incubated with the tested compounds for 12 h. The media containing the iridium complexes was removed and fresh media without the complexes was added.
(§8) After another 32 h of incubation, MTT was added. The cytotoxicity was determined as described

A549 cells [1] = test: (Photo)cytotoxicity, MTT assay, A549; format: cell-based, human; conditions: for PI (phototoxicity index) / IC50: A549; for PI (phototoxicity index): IC50 dark / IC50 light
Procedure: as §1, §2, §3, §4, §5, §6, §7, §8

MCF-7 cells = test: (Photo)cytotoxicity, MTT assay, MCF-7; format: cell-based, human; conditions: for PI (phototoxicity index): IC50 dark / IC50 light
Procedure: as §1, §2, §3, §4, §5, §6, §7, §8

A549cisR cells = test: (Photo)cytotoxicity, MTT assay, A549cisR; format: cell-based, human; conditions: for PI (phototoxicity index): IC50 dark / IC50 light
Procedure: as §1, §2, §3, §4, §5, §6, §7, §8

[2] = test system: caspase-3/7 activity in A549 cells; test: Caspase-3/7 activity assay (Caspase-Glo); format: cell-based, human; conditions: for increase in caspase-3/7 activity: vs control cells in the dark
Procedure: (§9) concentrations for 24 h with or without light irradiation. After A549 cells were incubated with 2 for 12 h, the cells were irradiated with a 425 nm LED light array (40 mW cmí2) for 15 min (36 J cmí2).
(§10) When necessary, the cells were incubated with NaN3 (10 mM) for 1 h before PDT treatment. The cells were washed twice with PBS gently and fixed with 4% paraformalclehyde for 30 min at room temprature. The cells were washed with PBS twice, and then Hoechst 33342 (5 µg/mL) in PBS was added to the media by gently shaking in the dark for 10 min. The cells were washed with PBS twice and visualized by confocal microscopy (LSM 710, Carl Zeiss, Göttingen, Germany). Emission was collected at 460 ± 20 nm upon excitation at 405 nm.
Caspase-3/7 activity assay
Caspase-3/7 activity was measured using Caspase-Glo® Assay kit (Promega, Madison, WI, USA) according to the manufacturer's instructions. Briefly, cells were cultured in 96-well plates and treated […]
incubated with 2 or cisplatin for 12 h, the cells were irradiated with a 425 nm LED light array (40 mW cmí2) for 15 min (36 J cmí2). 100 µL of Caspase-Glo® 3/7 reagent was added to each well containing 100 µL culture media. The mixture was incubated at room temperature for 1 h and then the luminescence was measured using a microplate reader (Infinite M200 Pro, Tecan, Männedorf, […]
The cells were further treated with 10 ȝM DCF-DA for 20 min at 37 °C in the dark and then then irradiated with a 425 nm LED light array (40 mW cmí2) for 15 min (36 J cmí2). After the treatment, the cells were harvested and washed twice with serum-free RPMI 1640, the fluorescence intensity of DCF in A549 cells was measured by flow cytometry (FACSCaliburTM, Becton Dickinson, Franklin Lakes, NJ, USA). The results were analyzed by FlowJo Software (Tree Star, OR, USA). […]
(§11) concentrations for 12 h and then irradiated with a 425 nm LED light array (40 mW cmí2) for 15 min

A549 cells [3] = conditions: A549, 0.5 μM with light (36 J cm–2), vs control cells treated with light alone
Procedure: as §9
as §10, with “nm. […]” for “nm.”
Caspase-3/7 activity was measured using Caspase-Glo® Assay kit (Promega, Madison, WI, USA) according to the manufacturer's instructions. […]
incubated with 2 or cisplatin for 12 h, the cells were irradiated with a 425 nm LED light array (40 mW cmí2) for 15 min (36 J cmí2). […] The mixture was incubated at room temperature for 1 h and then the luminescence was measured using a microplate reader (Infinite M200 Pro, Tecan, Männedorf, […]
The cells were further treated with 10 ȝM DCF-DA for 20 min at 37 °C in the dark and then then irradiated with a 425 nm LED light array (40 mW cmí2) for 15 min (36 J cmí2). […] The results were analyzed by FlowJo Software (Tree Star, OR, USA). […]

A549 cells [4] = conditions: A549, 0.5 μM with light (36 J cm–2)
Procedure: Annexin V/propidium iodide double staining assay
The assay was performed according to the manufacturer's (Sigma Aldrich, USA) protocol. A549 cells
a 425 nm LED light array (40 mW cmí2) at different light doses (12, 24 or 36 J cmí2).
necessary, the cells were incubated with NaN3 (10 mM) for 1 h before PDT treatment. For flow
cytometry analysis, the cells were harvested and re-suspended in 500 ȝL annexin-binding buffer (10
mM HEPES, 140 mM NaCl, 2.5 mM CaCl2, pH 7.4). The cell suspension was stained with 5 ȝL
annexin V and 10 ȝL propidium iodide at room temperature for 15 min in the dark, and then
analyzed immediately by flow cytometry (FACSCaliburTM, Becton Dickinson, NJ, USA). The
resulting dot blots were analyzed by FlowJo Software (Tree Star, OR, USA). For confocal
microscopy analysis, the cells were washed twice with PBS, and then incubated with 500 ȝL annexin-binding buffer supplemented with 5 ȝL annexin V and 10 ȝL propidium iodide at room
temperature for 15 min in the dark. The samples were visualized immediately by confocal
microscopy (LSM 710, Carl Zeiss, Göttingen, Germany). Emission was collected at 530 ± 20 nm
(annexin V) and 620 ± 20 nm (propidium iodide) upon excitation at 488 nm.

A549 and LO2 cells = conditions: 0.5 μM, light 36 J cm–2, annexin V/propidium iodide staining
Procedure: as §11

[5] = dark, incubated 48 h, read-out: IC50 Dark
[6] = incubated 12 h then 425 nm LED 15 min (36 J cm–2), read-out: IC50 (light) (converted)
[7] = Homo sapiens, L02, dark, incubated 48 h, read-out: IC50 Dark
[8] = Homo sapiens, L02, incubated 12 h then 425 nm LED 15 min (36 J cm–2), read-out: IC50 (light) (converted)
[9] = Homo sapiens, dark, incubated 48 h, read-out: IC50 Dark
[10] = Homo sapiens, incubated 12 h then 425 nm LED 15 min (36 J cm–2), read-out: IC50 (light) (converted)

Row | Compound | PI (phototoxicity index) (LO2 cells) | IC50 (LO2 cells; [5]) [µM] | IC50 (LO2 cells; [6]) [µM] | PI (phototoxicity index) (A549 cells [1]) | IC50 (A549 cells [1]; [5]) [µM] | IC50 (A549 cells [1]; [6]) [µM] | PI (phototoxicity index) (MCF-7 cells) | PI (phototoxicity index) (A549cisR cells) | IC50 (A549cisR cells; [5]) [µM] | IC50 (A549cisR cells; [6]) [µM] | IC50 (LO2 cells; [7]) [µM] | IC50 (LO2 cells; [8]) [µM] | IC50 (A549 cells [1]; [9]) [µM] | IC50 (A549 cells [1]; [10]) [µM] | IC50 (A549cisR cells; [9]) [µM] | IC50 (A549cisR cells; [10]) [µM] | further results
1 | Ir2(dfppy)4Cl2 [reference compound] | 1.4 | 29.6 ± 3.1 | 21.5 | 1.2 | 11.5 ± 1.5 | 9.3 | 5.2 | 1.0 | 4.3 ± 0.5 | 4.2 | – | – | – | – | – | – | –
2 | Ir2(ppy)4Cl2 [reference compound] | 1.3 | 28.5 ± 2.4 | 21.3 | 1.7 | 19.6 ± 2.6 | 11.4 | 4.3 | 2.9 | 20.2 ± 2.3 | 7 | – | – | – | – | – | – | –
3 | c1ccc2[nH]c(-c3nccc4c3[nH]c3ccccc34)nc2c1 [Complex L2, 1-(2-benzimidazolyl)-β-carboline] | – | – | – | – | – | – | – | – | – | – | > 100 | > 100 | > 100 | > 100 | > 100 | > 100 | –
4 | N.N.[Cl][Pt][Cl] [Cisplatin, reference compound] | 1.0 | 31.2 ± 2.7 | 30.5 | 1.0 | 23.3 ± 2.6 | 22.6 | 1.1 | 1.0 | 85.5 ± 5.3 | 86.1 | – | – | – | – | – | – | effect of light irradiation on caspase-3/7 activation ([2]; A549, 425 nm light (36 J cm–2)): no effect
5 | [Ir(N^C)2(N^N)](PF6) in which N^C = 2-phenylpyridine and N^N = 1-(2-benzimidazolyl)-β-carboline [Complex 2] | – | > 100 | 4.4 | >833 | ≥ 100 | 0.12 | > 769 | >625 | > 100 | 0.16 | – | – | – | – | – | – | increase in the mean fluorescence intensity of DCF (A549 cells [3]): ca. 17 fold; fold higher phototoxicity against A549 cells than against LO2 cells (A549 cells [1]; light IC50 A549 vs LO2): over 36 fold; percentage of apoptotic cells (A549 cells [4]): 69.7%; IC50 (MCF-7 cells; incubated 12 h then 425 nm LED 15 min (36 J cm-2), read-out: IC50 Light): 0.13 ± 0.02 µM; increase in caspase-3/7 activity ([2]; A549, 0.5 μM and light (36 J cm–2)): approximately 5.7 fold; increase in caspase-3/7 activity ([2]; A549, compound alone (dark)): negligible increase; selectivity of PDT in A549/LO2 co-culture (A549 and LO2 cells): high selectivity towards cancer over normal cells
6 | c1ccc2c(c1)[nH]c1c(-c3ncc[nH]3)nccc12 [Complex L1, 1-(2-imidazolyl)-β-carboline, reference compound] | >2.1 | – | – | >5.7 | – | – | 16.3 | 2.2 | – | – | > 100 | 47.4 | > 100 | 17.6 | 42.6 ± 3.8 | 19.7 | –
